Reference: ChEMBL document CHEMBL4837201, “Increased antibacterial properties of indoline-derived phenolic Mannich bases” (Eur J Med Chem, 2021)
In brackets after ≈: the same amount, converted by molar mass.

Assays:
[1] = test system: Staphylococcus epidermidis; assay: Antibacterial activity against Staphylococcus epidermidis ATCC 12228 assessed as inhibition of bacterial growth incubated for 16 to 24 hrs by broth microdilution method; assay type: functional; settings: time 16-24 hrs
Staphylococcus aureus [2] = assay: Antibacterial activity against Staphylococcus aureus ATCC 6538 assessed as inhibition of bacterial growth incubated for 16 to 24 hrs by broth microdilution method; assay type: functional; settings: time 16-24 hrs
Staphylococcus aureus [3] = assay: Antibacterial activity against methicillin-resistant Staphylococcus aureus CIP106760 assessed as inhibition of bacterial growth incubated for 16 to 24 hrs by broth microdilution method; assay type: functional; settings: time 16-24 hrs
[4] = Antioxidant activity assessed as DPPH radical scavenging activity at 10 ug/ml by DPPH assay relative to control; assay type: functional; settings: dose 10.0 µg/ml
Staphylococcus aureus [5] = assay: Antibacterial activity against methicillin-sensitive Staphylococcus aureus ATCC 25923 assessed as inhibition of bacterial growth incubated for 16 to 24 hrs by broth microdilution method; assay type: functional; settings: time 16-24 hrs
Enterococcus faecalis [6] = assay: Antibacterial activity against vancomycin-resistant Enterococcus faecalis ATCC 51299 assessed as inhibition of bacterial growth incubated for 16 to 24 hrs by broth microdilution method; assay type: functional; settings: time 16-24 hrs
Bacillus subtilis = assay: Antibacterial activity against Bacillus subtilis ATCC 6633 assessed as inhibition of bacterial growth incubated for 16 to 24 hrs by broth microdilution method; assay type: functional; settings: time 16-24 hrs
Enterococcus faecalis [7] = assay: Antibacterial activity against Enterococcus faecalis ATCC 29212 assessed as inhibition of bacterial growth incubated for 16 to 24 hrs by broth microdilution method; assay type: functional; settings: time 16-24 hrs
[8] = Cytotoxicity against human HaCaT cells assessed as cell viability at 28 uM after 24 hrs by MTT assay; assay type: cell-based; settings: read-out: Activity
[9] = Toxicity in Saccharomyces cerevisiae ATCC 2601 assessed as reduction in cell viability measured after 24 hrs by microdilution method; settings: for IC50 at 24 h: Saccharomyces cerevisiae, Saccharomyces cerevisiae ATCC 2601 cells
[10] = Cytotoxicity against human HaCaT cells assessed as cell viability at 50 uM after 24 hrs by MTT assay; assay type: cell-based; settings: HaCaT cells, read-out: Activity
HaCaT = assay: Cytotoxicity against human HaCaT cells assessed as reduction in cell viability at 50 uM after 24 hrs by MTT assay; assay type: cell-based

| Molecule | MBC [1] [µM] | MIC [1] [µM] | MBC (Staphylococcus aureus [2]) [µM] | MIC (Staphylococcus aureus [2]) [µM] | MBC (Staphylococcus aureus [3]) [µM] | MIC (Staphylococcus aureus [3]) [µM] | Activity [4] [%] | MBC (Staphylococcus aureus [5]) [µM] | MIC (Staphylococcus aureus [5]) [µM] | MBC (Enterococcus faecalis [6]) [µM] | MIC (Enterococcus faecalis [6]) [µM] | MBC (Bacillus subtilis) [µM] | MIC (Bacillus subtilis) [µM] | MBC (Enterococcus faecalis [7]) [µM] | MIC (Enterococcus faecalis [7]) [µM] | viability at 24 h, 28 µM [8] [%] | IC50 at 24 h [9] [µM] | viability at 24 h, 50 µM [10] [%] | Activity (HaCaT) | IC50 [9] [µM] |
| --- | --- | --- | --- | --- | --- | --- | --- | --- | --- | --- | --- | --- | --- | --- | --- | --- | --- | --- | --- | --- |
| Cc1ccc(C(c2cc([N+](=O)[O-])ccc2O)N2CCc3cc(Cl)ccc32)cc1 (stereo not given) | 37.7 (≈ 14.9 µg/mL) | 75.4 (≈ 29.8 µg/mL) | < 158 | 19.8 (≈ 7.82 µg/mL) | 4.59 (≈ 1.81 µg/mL) | 1.15 (≈ 0.454 µg/mL) | > 80 | 36.8 (≈ 14.5 µg/mL) | 2.3 (≈ 0.908 µg/mL) | 9.19 (≈ 3.63 µg/mL) | 2.3 (≈ 0.908 µg/mL) | 151 (≈ 59.6 µg/mL) | 37.7 (≈ 14.9 µg/mL) | 9.19 (≈ 3.63 µg/mL) | 1.15 (≈ 0.454 µg/mL) | – | – | – | – | – |
| Cc1ccccc1C(c1cc([N+](=O)[O-])ccc1O)N1CCc2c(C#N)cccc21 (stereo not given) | 18.9 (≈ 7.28 µg/mL) | 2.36 (≈ 0.91 µg/mL) | 20.3 (≈ 7.82 µg/mL) | 5.07 (≈ 1.95 µg/mL) | 20.3 (≈ 7.82 µg/mL) | 5.07 (≈ 1.95 µg/mL) | – | 81.1 (≈ 31.3 µg/mL) | 10.1 (≈ 3.89 µg/mL) | 162 (≈ 62.4 µg/mL) | 10.1 (≈ 3.89 µg/mL) | 18.9 (≈ 7.28 µg/mL) | 4.71 (≈ 1.82 µg/mL) | 81.1 (≈ 31.3 µg/mL) | 5.07 (≈ 1.95 µg/mL) | – | – | – | – | – |
| Cc1ccc(C(c2cc([N+](=O)[O-])ccc2O)N2CCc3ccccc32)cc1 (stereo not given) | – | – | 43.4 (≈ 15.6 µg/mL) | 10.8 (≈ 3.89 µg/mL) | 5.42 (≈ 1.95 µg/mL) | 2.71 (≈ 0.977 µg/mL) | > 80 | 347 (≈ 125 µg/mL) | 21.3 (≈ 7.68 µg/mL) | 173 (≈ 62.4 µg/mL) | 21.7 (≈ 7.82 µg/mL) | – | – | 86.7 (≈ 31.2 µg/mL) | 10.8 (≈ 3.89 µg/mL) | 20 | > 100 | – | – | – |
| Cc1ccccc1C(c1cc([N+](=O)[O-])ccc1O)N1CCc2cc(Cl)ccc21 (stereo not given) | 2.36 (≈ 0.932 µg/mL) | < 1.18 | 4.95 (≈ 1.95 µg/mL) | 1.24 (≈ 0.49 µg/mL) | 2.47 (≈ 0.975 µg/mL) | 1.24 (≈ 0.49 µg/mL) | – | 39.6 (≈ 15.6 µg/mL) | 2.47 (≈ 0.975 µg/mL) | 158 (≈ 62.4 µg/mL) | 2.47 (≈ 0.975 µg/mL) | 4.71 (≈ 1.86 µg/mL) | < 1.18 | 9.89 (≈ 3.91 µg/mL) | 1.24 (≈ 0.49 µg/mL) | – | > 100 | 3 | Toxic | – |
| Cc1ccc(C(c2cc([N+](=O)[O-])ccc2O)N2CCc3cc(O)ccc32)cc1 (stereo not given) | 302 (≈ 114 µg/mL) | 37.8 (≈ 14.2 µg/mL) | 332 (≈ 125 µg/mL) | 166 (≈ 62.6 µg/mL) | 108 (≈ 40.7 µg/mL) | 67.7 (≈ 25.5 µg/mL) | > 80 | 542 (≈ 204 µg/mL) | 67.7 (≈ 25.5 µg/mL) | 108 (≈ 40.7 µg/mL) | 135 (≈ 50.8 µg/mL) | > 9.43 | 2.4 (≈ 0.903 µg/mL) | 108 (≈ 40.7 µg/mL) | 135 (≈ 50.8 µg/mL) | – | – | – | – | – |
| Cc1ccc(C(c2cc([N+](=O)[O-])ccc2O)N2CCc3cc(Br)ccc32)cc1 (stereo not given) | 4.71 (≈ 2.07 µg/mL) | 9.43 (≈ 4.14 µg/mL) | < 142 | 17.8 (≈ 7.82 µg/mL) | 20.3 (≈ 8.92 µg/mL) | 5.07 (≈ 2.23 µg/mL) | > 80 | 81.1 (≈ 35.6 µg/mL) | 10.1 (≈ 4.44 µg/mL) | 162 (≈ 71.2 µg/mL) | 10.1 (≈ 4.44 µg/mL) | 9.43 (≈ 4.14 µg/mL) | 4.71 (≈ 2.07 µg/mL) | 81.1 (≈ 35.6 µg/mL) | 5.07 (≈ 2.23 µg/mL) | – | – | – | – | – |
| Cc1ccc(C(c2cc([N+](=O)[O-])ccc2O)N2CCc3c(C#N)cccc32)cc1 (stereo not given) | 302 (≈ 116 µg/mL) | 37.8 (≈ 14.6 µg/mL) | 40.5 (≈ 15.6 µg/mL) | 20.3 (≈ 7.82 µg/mL) | 21.4 (≈ 8.25 µg/mL) | 2.68 (≈ 1.03 µg/mL) | 19 | 85.8 (≈ 33.1 µg/mL) | 10.7 (≈ 4.12 µg/mL) | 172 (≈ 66.3 µg/mL) | 5.36 (≈ 2.07 µg/mL) | 9.43 (≈ 3.63 µg/mL) | 4.71 (≈ 1.82 µg/mL) | 42.9 (≈ 16.5 µg/mL) | 2.68 (≈ 1.03 µg/mL) | – | – | – | – | – |
| NYSTATIN | – | – | – | – | – | – | – | – | – | – | – | – | – | – | – | – | – | – | – | 3.31 |
